Where two headings read alike, the source gives them in different places.
Assays:
[1] = from LD50 and anti-tumor dose in mice
Text: I. Experiment Item: the anti-tumor therapeutic index of CL168

CAM vessels = test: CAM assay, effect on tumor angiogenesis; assay type: in vivo, German Roman embryonated eggs; conditions: 72 hours incubation
Description: A sterile gelatin sponge, previously made into disks with diameter of 5 mm by a hole puncher, was used as sample carrier. […] There were 3 dose groups, wherein 5 μl (low dose group, with a dose volume of 2 μg/embryo), 10 μl (middle dose group, with a dose volume of 4 μg/embryo), and 20 μl (high dose group, with a dose volume of 8 μg/embryo) of the solution were added respectively into gelatin sponge slices by a quantitative liquid transfer. The sponge slices were dried in the sterile environment.
A sterilized egg was placed into a 37° C. incubator with its air chamber upward. In the 7th day, the embryo was positioned on a super-clean bench and sterilized by ethanol, and then it was drilled by a dental drill to form a little hole in the top of the embryo. Egg shell and shell membrane around the hole were carefully removed to form an opening of about 1.2 cm×1.2 cm; after determining a sample-adding site, the air chamber membrane was carefully pricked at the separation place between the chamber and the yolk by a syringe needle; through the prick hole 1-2 drops of sterilized water was injected, which made the chamber membrane and the CAM membrane be separated; after gently removing the upper layer of the chamber membrane with forceps, the CAM membrane in the lower layer was exposed.
A drug-containing carrier was placed, at the junction area of the CAM membrane and the yolk sac membrane, on a site where vessels were less, and then sealed with sterilized transparent adhesive tape to continue to incubate for 72 hours.
After the incubation, the transparent adhesive tape stopped on the top of the air chamber was gently removed by forceps; a mixture of methanol/acetone (1:1, 1-2 ml) was gently added; the room temperature was remained constant for 10 minutes. Then, the CAM membrane was carefully peeled off and placed on a glass slide for observing and taking photos. The effect of the compound on angiogenesis was assessed by counting the numbers of large, middle, small blood vessels radiated by the carrier.

Caspase 9 = conditions: 2.0 μg, HepG2 cells
Description: (§1) 2.1.1 HepG2 cells were digested by trypsin in the cell culture medium. The resulting mixture (6000 was centrifuged for 5 minutes at 4° C. to collect the cells. The supernatant was carefully aspirated and discarded. The remains were washed once with PBS, added to lysate (100 μl/2×10^6 cells); and then, after resuspending the precipitation, ice cracked for 15 minutes.
(§2) 2.1.2 The resulting mixture (16000 g) was centrifuged at 4° C. for 15 minutes.
(§3) 2.1.3 The supernatant was transferred into a centrifugal tube that was pre-cooled by ice bath.
(§4) 2.2.3 Incubating at 37° C. for 120 minutes, detecting Caspase 3 with A405;
(§5) 2.2.4 Adding Ac-IETD-PNA (2 mM) and Ac-LEHD-PNA (2 mM), respectively, for detecting Caspase 8, 9

Caspase 8 = conditions: 2.0 μg, HepG2 cells
Description: as §1, §2, §3, §4, §5

VEGF = conditions: 16 mg/kg (low dose group), OD at 450 nm
Description: Before taking tumors out, blood was collected by eye bleeding from mice in the four groups, i.e. the negative control group, the positive CTX control group, the high dose (32 mg/kg) group and the low dose (16 mg/kg) group.
1.1 Preparing reagents, samples and standards;
1.2 Adding the prepared samples and standards, and reacting for 90 minutes at 37° C.;
1.3 Washing the plate twice, adding biotinylated antibody working solution, and reacting for 60 minutes at 37° C.;
1.4 Washing the plate for three times, adding ABC working solution, and reacting for 30 minutes at 37° C.;
1.5 Washing the plate for five times, adding TMB color liquid, and reacting in dark for 15 minutes at 37° C.;
1.6 Adding TMB stop solution, and measuring OD value at 450 nm.

Caspase 3 = conditions: 2.0 μg, HepG2 cells, A405
Description: as §1, §2, §3
2.2.1 Took out pNA and a suitable amount of Ac-DEVD-PNA (2 mM), put them on the ice bath for later use;
as §4

mouse sarcoma cells S180 = system: mouse sarcoma cells S180
Description: Ascites mice S180 and H22 that had been vaccinated 7 days were sacrificed by cervical, from which ascites were obtained under sterile conditions respectively; the obtained ascites were washed twice with culture medium RPMI1640, and prepared to a 2×10^7/ml suspension in sterile physiological saline. The suspension of cell S180 was inoculated subcutaneously in the right axillas of 40 mice (0.1 ml/mouse) to produce solid tumor models; while the suspension of cell H22 was inoculated in abdominal cavities of 40 mice (0.2 ml/mouse) by conditional means under sterile conditions to produce ascites tumor models.
90 mice were randomly divided into 9 groups of 3 types, wherein the first type group was a normal control group, the second type groups were S180 solid tumor groups including a positive (cyclophosphamide) control group, a negative control group, a low dose group and a high dose group, and the third type groups were H22 ascites groups including a positive (cyclophosphamide) control group, a negative control group, a low dose group and a high dose group. There were 10 mice in each group. The experiment was repeated for three times.
[…], the negative control group was injected same volume of corn oil, and the positive control group was injected cyclophosphamide injection solution with the dose of 0.02 g/(Kg.d). The used injection volume was 0.1 ml/mouse and the injection was given as intraperitoneal injection every other day for 15 days. During the 15 days, general activities, fur, feces, etc. of the mice were daily observed. 24 hours after the last administration, mice that had been inoculated subcutaneously with S180 were sacrificed by cervical, from which tumors, thymus and spleen were taken out. After the last administration, mice that had been inoculated in abdominal cavities with H22 were conventionally bred continually, weighted and observed the survival time every day until all the mice in the negative group were dead.
After finishing the administration in all mice in the solid tumor group, the mice were sacrificed and their spleens and livers were weighed by electronic balance. The spleen index was equivalent to the spleen weight (mg) of mice in each group divided by the weight of the mice, while the liver index was equivalent to the liver weight […] divided by the weight (g) of the mice.
On the next day after drug withdrawal, the mice in the solid-tumor […] group were weighed and sacrificed by cervical, wherein the serum was collected by eye bleeding for later use in subsequent experiments. Tumor tissues were dissected and weighed by electronic balance. The tumor inhibition rate was calculated as follows. Tumor Inhibition Rate(%)=[(mean tumor weight of negative control group−mean tumor weight of treatment group)/mean tumor weight of control group]×100%

[2] = S180 sarcoma mice, low dose 16 mg/kg i.p. every other day for 15 days

## CC(C)CCC[C@@H](C)[C@H]1CC[C@@H]2[C@]1(C)CC[C@H]1[C@]23C=C[C@]2(CC(=O)CC[C@]12C)OO3 [CL168-6, 5α,8α-cyclicobioxygen-6-cholesten-3-one]
[1]
  anti-tumor therapeutic index (TI): 49.3
[1]; listed as CL168
  anti-tumor therapeutic index (TI): about 49.3
CAM vessels; 2 ug/embryo
  Large vessels (number of the vessels): 3.5 ± 1.8
  Middle vessels (number of the vessels): 13.2 ± 3.7
  Small vessels (number of the vessels): 8.8 ± 2.3
CAM vessels; 4 ug/embryo
  Large vessels (number of the vessels): 3.6 ± 1.9
  Middle vessels (number of the vessels): 11.2 ± 3.2
  Small vessels (number of the vessels): 6.5 ± 2.5
CAM vessels; 8 ug/embryo
  Large vessels (number of the vessels): 2.5 ± 2.0
  Middle vessels (number of the vessels): 12.6 ± 5.6
  Small vessels (number of the vessels): 4.0 ± 2.8
Caspase 9; 24 h
  OD value of Caspase9: 0.156
Caspase 9; 48 h
  OD value of Caspase9: 0.146
Caspase 8; 24 h
  OD value of Caspase8: 0.413
Caspase 8; 48 h
  OD value of Caspase8: 0.408
VEGF
  OD value of serum VEGF: 0.2064 ± 0.0114^□
Caspase 3; 24 h
  OD value of Caspase3: 0.190
Caspase 3; 48 h
  OD value of Caspase3: 0.185
Mouse sarcoma cells S180; S180 sarcoma mice, high dose 32 mg/kg i.p. every other day for 15 days
  Tumor weight (g): 0.629 ± 0.133^(3) g
Mouse sarcoma cells S180; S180 sarcoma mice, high dose 32 mg/kg i.p. every other day for 15 days, 32 mg/kg
  Tumor inhibition rate (%): 54.58%
Mouse sarcoma cells S180; [2]
  Tumor weight (g): 0.771 ± 0.407^ g
  Weight increase: 6.71 ± 1.22 g
Mouse sarcoma cells S180; S180 sarcoma mice, low dose 16 mg/kg i.p. every other day for 15 days, 16 mg/kg
  Tumor inhibition rate (%): 44.33%
Mouse sarcoma cells S180; mouse, in vivo, ip, 16 mg/kg
  Liver index (100 g/g): 4.45 ± 0.19 100 g/g
  Spleen index (mg/g): 5.32 ± 0.68^(2)(4) mg/g
Mouse sarcoma cells S180; mouse, in vivo, ip, 32 mg/kg
  Liver index (100 g/g): 4.38 ± 0.13 100 g/g
  Spleen index (mg/g): 5.34 ± 0.73^(2)(4) mg/g
  Weight increase: 6.00 ± 1.11 g

— patent US8853194B2, “Sterol derivatives and their synthesis and use” (priority 2009, dated 2014)
